From US20250318524A1, “ANTIMICROBIAL COATING COMPOSITION AND METHOD OF USE THEREOF” (priority 2024, published 2025)

Assay: Selection of antimicrobial agents: solubility in aqueous solution, stability, compatibility with the coating composition

Row | Molecule | solubility in water
1 | N=C(NCCCCCCNC(=N)NC(=N)Nc1ccc(Cl)cc1)NC(=N)Nc1ccc(Cl)cc1.O=C(O)[C@H](O)[C@@H](O)[C@H](O)[C@H](O)CO.O=C(O)[C@H](O)[C@@H](O)[C@H](O)[C@H](O)CO [Chlorhexidine gluconate, chlorhexidine gluconate] | good water solubility
2 | polyhexamethylene biguanide [PHMB] | good water solubility
